Data on 21 molecules can be found in patent US10189826B2, “Heterocyclic compounds and methods of use” (Medivation Technologies LLC, priority 2015, dated 2019).

Like-named read-outs stand apart in the source and are kept apart here.

Series [1] has as its system SREBP-2 transcriptional activity (SREBP2 cleavage) in HepG2_LSSprom cells. Kind of series: Luciferase reporter driven by a SREBP-2 specific promoter in HepG2_LSSprom cells. It counts as cell-based. The settings on record: 24 h, read-out: SREBP2 Cleavage (IC50 μM) 24 h. On the procedure:
Dose response effects were measured of Compounds on the transcriptional activity of a Luciferase reporter driven by a SREBP-2 specific promoter in HepG2_LSSprom cells.
(§1) HepG2_LSSprom cells (SwitchGear Genomics, cat# C711010L) were cultured in DMEM with 10% of fetal bovine serum (FBS), supplemented with Puromycin (1 μg/mL), 1% Penicillin/Streptomycin (Pen-Strep), 37° C., humidified, 95% air and 5% CO2. Culture media was refreshed every 2 or 3 days. Cells were used between passage number 6-12.
For luminescence assays, cells were plated out at 20,000 cells/well in white 96 well plates in DMEM plus 10% FBS and 1% Pen-Strep without puromycin. After 1 day, cells were treated with Compound by diluting the drug in culture medium without FBS to a final concentration of 0.625, 1.25, 2.5, 3.75, 5 and 10 μM. Drug was prepared by dilutions of 10 mM stock aliquots. As control was used culture medium without FBS plus DMSO. Treatments with Compound were maintained for 6 h, or 24 h, until the luciferase assay was carried out.
After 6 h of treatments with Compound, the luciferase assay was performed. Briefly, the assay solution (buffer+substrate) was prepare just prior to use. To each well 100 μL of assay solution was added. The 96-well plate was then gently mix for 2 min and incubated for 30 min at RT protected from light. The luminescence was read using a Synergy 4 (Biotek) equipment recording luminescence with sensibility set up at 150.
(§2) Five independent experiments were carried out for both luciferase and cytotoxicity assay. In each experiment, three wells were use per condition and the results are represented as means±SEM.
For luciferase assay, Vehicle (no treatment) was taken as 100% of luciferase activity. This value represents the SREBP-2 transcriptional activity for the vehicle condition and was taken as 100% of SREBP-2 cleaved. The percentage for each treatment was calculated normalizing against the vehicle control. The graphics were made using the GraphPad Prism ver. 6.05 software. Half of maximal inhibitory concentration (IC50) of the effect of Compound on SREBP was obtain by nonlinear fit regression of mean normalized values vs. Compound concentration using the log(inhibitor) vs. response−Variable slope (four parameters) tool.

The nature of series [2]: Cytotoxicity assay (LDH release) in HepG2_LSSprom cells. The format is cell-based. The settings on record: human, HepG2 LSSprom cells, 24 h treatment, LDH release. As to the method:
as §1
For cytotoxicity assays, cells were plated out at 20,000 cells/well in transparent 96 well plates in DMEM plus 10% FBS and 1% Pen-Strep without puromycin. After 1 day, cells were treated with Compound by diluting in culture medium without FBS to a final concentration of 0.625, 1.25, 2.5, 3.75, 5 and 10 μM. Compound was prepared by dilutions of 10 mM stock aliquots. As a negative control culture medium was used without FBS plus DMSO. As maximum LDH release control (Lysis control) a lysis buffer provided by the kit manufacturer was used. Treatments with Compound were maintained for 6 h, or 24 h, in cell culture medium without serum until the cytotoxicity assay was started.
The cytotoxicity assay was performed according to the manufacturer's instructions. As maximum LDH release control (Lysis control) 3 wells per plate were treated with 10 μL of lysis buffer 45 min before the treatment was over. Briefly, after the 6 h, or 24 h, of treatment, 50 μL of media from each well was transferred to a new 96-well plate. To the transferred media, 50 μL of reconstituted substrate mix was added. The plates were covered from light and incubated at RT for 10 min. Then, 50 μL of stop solution was added to each well. The plates were then read using a Synergy 4 (Biotek) equipment recording the absorbance at 490 nm.
as §2
For cytotoxicity assay, Lysis control was taken as 100%/o of LDH release. The vehicle values were taken as basal LDH release and were subtracted to all the treatments (including vehicle itself) having this value as 0% of LDH release. The LDH release for the treatments was calculated respect to the 100% of LDH release of Lysis control normalized against vehicle. All the negatives values were taken as 0% of cytotoxicity. The graphics were made using the Graph Prism ver. 6.05 software.
On the technique in general: Release of lactate dehydrogenase indicates damage to the cell membrane.

Setting [3] is: 24 h treatment, HepG2_LSSprom cells.

The IC50 is the concentration at which inhibition is half-maximal.

With `CC(C)(C)C(=O)NC1CCCN(C(=O)c2ccc(-c3csc(-c4ccnc(C(C)(C)C)c4)c3)c(Cl)c2)C1` (stereo not drawn) [Compound 55, N-(1-{4-[5-(2-tert-butylpyridin-4-yl)thiophen-3-yl]-3-chlorobenzoyl}piperidin-3-yl)-2,2-dimethylpropanamide], the IC50 in series [1] (setting [3]) turned out to be 0.36 µM. Besides, the IC50 at 24 h in series [2] was above 10 µM.

Turning to `CC(C)(C)c1cc(-c2cc(-c3ccc(C(=O)N4CCN(S(C)(=O)=O)CC4)cc3Cl)cs2)ccn1` [Compound 30, 1-{4-[5-(2-tert-butylpyridin-4-yl)thiophen-3-yl]-3-chlorobenzoyl}-4-methane sulfonylpiperazine], in series [1] (setting [3]), the IC50 was 2.5 µM. The IC50 at 24 h in series [2] is above 10 µM.

On to `CNC1CCCN(C(=O)c2ccc(-c3csc(-c4ccnc(C(C)(C)C)c4)c3)c(Cl)c2)C1` (stereo not drawn) [Compound 75, 1-{4-[5-(2-tert-butylpyridin-4-yl)thiophen-3-yl]-3-chlorobenzoyl}-N-methylpiperidin-3-amine], for which the IC50 in series [1] (setting [3]) came to 3.2 µM. Further, the IC50 at 24 h in series [2] is above 10 µM.

`CCN(CCNC(C)=O)C(=O)c1ccc(-c2csc(-c3ccnc(C(C)(C)C)c3)c2)c(Cl)c1` [Compound 47, N-[2-(1-{4-[5-(2-tert-butylpyridin-4-yl)thiophen-3-yl]-3-chlorophenyl}-N-ethylformamido)ethyl]acetamide]: in series [1] (setting [3]), the IC50 came to 0.33 µM. For the same molecule, the IC50 at 24 h in series [2] is above 10 µM.

`CC(C)(C)c1cc(-c2nc(-c3ccc(C(=O)N4CCC(O)CC4)cc3Cl)c[nH]2)ccn1` [Compound 98, 1-{4-[2-(2-tert-butylpyridin-4-yl)-1H-imidazol-4-yl]-3-chlorobenzoyl}piperidin-4-ol]: in series [1], the IC50 amounted to 0.99 µM. Besides, the IC50 at 24 h in series [2] was above 10 µM.

Turning to `CC(C)(C)c1cc(-c2cc(-c3ccc(C(=O)N4CCC(NS(C)(=O)=O)CC4)cc3Cl)cs2)ccn1` [Compound 59, N-(1-{4-[5-(2-tert-butylpyridin-4-yl)thiophen-3-yl]-3-chlorobenzoyl}piperidin-4-yl)methanesulfonamide], in series [1] (setting [3]), the IC50 was found to be 1.6 µM. Besides, in series [2], the IC50 at 24 h is above 10 µM.

In the case of `CC(C)(C)c1cc(-c2cc(-c3ccc(C(=O)N4CCCC(NS(C)(=O)=O)C4)cc3Cl)cs2)ccn1` (racemic) [Compound 31, N-(1-{4-[5-(2-tert-butylpyridin-4-yl)thiophen-3-yl]-3-chlorobenzoyl}piperidin-3-yl)methanesulfonamide], in series [1] (setting [3]), the IC50 came to 0.99 µM. In addition, the IC50 at 24 h in series [2] is above 10 µM.

Consider `CCOC(=O)NC1CCCN(C(=O)c2ccc(-c3csc(-c4ccnc(C(C)(C)C)c4)c3)c(Cl)c2)C1` (stereo not drawn) [Compound 44, ethyl N-(1-{4-[5-(2-tert-butylpyridin-4-yl)thiophen-3-yl]-3-chlorobenzoyl}piperidin-3-yl)carbamate], for which, in series [1], the IC50 is 0.44 µM. Besides, the IC50 at 24 h in series [2] is above 10 µM.

`CC(=O)NC1CCCN(C(=O)c2ccc(-c3csc(-c4ccnc(C(C)(C)C)c4)c3)c(Cl)c2)C1` (racemic) [Compound 32, N-[1-[4-[5-(2-tert-butyl-4-pyridyl)-3-thienyl]-3-chloro-benzoyl]-3-piperidyl]acetamide]: the IC50 in series [1] turned out to be 0.81 µM. For the same molecule, the IC50 at 24 h in series [2] was above 10 µM.

With `CC(C)(C)c1cc(-c2csc(-c3ccc(C(=O)N4CCCC(C(=O)O)C4)cc3Cl)c2)ccn1` (stereo not drawn) [Compound 91], in series [1] (setting [3]), the IC50 was found to be 0.72 µM. Also, the IC50 at 24 h in series [2] is above 10 µM.

Take `Cc1sc(-c2ccc(C(=O)N3CCC[C@H](NC(=O)OC(C)(C)C)C3)cc2Cl)cc1-c1ccnc(C(C)(C)C)c1` [Compound 79b, tert-butyl N-[(3S)-1-{4-[4-(2-tert-butylpyridin-4-yl)-5-methylthiophen-2-yl]-3-chlorobenzoyl}piperidin-3-yl]carbamate]: in series [1] (setting [3]), the IC50 is 0.52 µM. Moreover, the IC50 at 24 h in series [2] was above 10 µM.

Consider `CC(C)(C)c1cc(-c2csc(-c3ccc(C(=O)N4CC[C@H](O)C4)cc3Cl)c2)ccn1` [Compound 68a, (3S)-1-{4-[4-(2-tert-butylpyridin-4-yl)thiophen-2-yl]-3-chlorobenzoyl}pyrrolidin-3-ol], for which the IC50 in series [1] (setting [3]) was determined as 0.15 µM. For the same molecule, in series [2], the IC50 at 24 h is above 10 µM.

Consider `CC(C)(C)OC(=O)N[C@@H]1CCCN(C(=O)c2ccc(-c3cc(-c4ccnc(C(C)(C)C)c4)cs3)c(Cl)c2)C1` [Compound 69, tert-butyl N-[(3R)-1-{4-[4-(2-tert-butylpyridin-4-yl)thiophen-2-yl]-3-chlorobenzoyl}piperidin-3-yl]carbamate], for which the IC50 in series [1] (setting [3]) is 0.015 µM. The IC50 at 24 h in series [2] was above 10 µM.

As to `CC(C)(C)c1cc(-c2csc(-c3ccc(C(=O)N4CCC(F)(F)CC4)cc3Cl)c2)ccn1` [Compound 40, 2-tert-butyl-4-{5-[2-chloro-4-(4,4-difluoropiperidine-1-carbonyl)phenyl]thiophen-3-yl}pyridine], the IC50 in series [1] (setting [3]) is 0.15 µM. The IC50 at 24 h in series [2] is above 10 µM.

Regarding `CC(C)(C)C(=O)N1CCN(C(=O)c2ccc(-c3csc(-c4ccnc(C(C)(C)C)c4)c3)c(Cl)c2)CC1` [Compound 46, 1-(4-{4-[5-(2-tert-butylpyridin-4-yl)thiophen-3-yl]-3-chlorobenzoyl}piperazin-1-yl)-2,2-dimethylpropan-1-one], in series [1] (setting [3]), the IC50 turned out to be 1.3 µM. Also, the IC50 at 24 h in series [2] was above 10 µM.

Take `CC(C)(C)c1cc(-c2cc(-c3ccc(C(=O)N4CCC[C@H](NCc5ccc(Cl)cc5)C4)cc3Cl)cs2)ccn1` [Compound 80b, (S)-(4-(5-(2-(tert-butyl)pyridin-4-yl)thiophen-3-yl)-3-chlorophenyl)(3-((4-chlorobenzyl)amino)piperidin-1-yl)methanone]: the IC50 in series [1] (setting [3]) was 0.04 µM. Also, the IC50 at 24 h in series [2] was above 10 µM.

`CC(=O)N1CCN(C(=O)c2ccc(-c3csc(-c4ccnc(C(C)(C)C)c4)c3)c(Cl)c2)CC1` [Compound 29, 1-(4-{4-[5-(2-tert-butylpyridin-4-yl)thiophen-3-yl]-3-chlorobenzoyl}piperazin-1-yl)ethan-1-one]: in series [1] (setting [3]), the IC50 is 1.4 µM. Besides, in series [2], the IC50 at 24 h was above 10 µM.

Consider `CC(C)(C)c1cc(-c2csc(-c3ccc(C(=O)N4CCCC(O)C4)cc3Cl)c2)ccn1` (stereo not drawn) [Compound 89, 1-{4-[4-(2-tert-butylpyridin-4-yl)thiophen-2-yl]-3-chlorobenzoyl}piperidin-3-ol], for which, in series [1] (setting [3]), the IC50 is 0.037 µM. Also, the IC50 at 24 h in series [2] is above 10 µM.

Consider `CC(C)(C)c1cc(-c2cc(-c3ccc(C(=O)N4CCCC(N5CCCC5=O)C4)cc3Cl)cs2)ccn1` (racemic) [Compound 34, 1-(1-{4-[5-(2-tert-butylpyridin-4-yl)thiophen-3-yl]-3-chlorobenzoyl}piperidin-3-yl) pyrrolidin-2-one], for which, in series [1] (setting [3]), the IC50 amounted to 0.85 µM. Further, in series [2], the IC50 at 24 h was above 10 µM.

For `CC(C)(C)c1cc(-c2csc(-c3ccc(C(=O)N4CCC[C@@H](N)C4)cc3Cl)c2)ccn1` [Compound 74a, (R)-(3-aminopiperidin-1-yl)(4-(4-(2-(tert-butyl)pyridin-4-yl)thiophen-2-yl)-3-chlorophenyl)methanone], the IC50 in series [1] (setting [3]) is 0.74 µM. Besides, the IC50 at 24 h in series [2] was above 10 µM.

Consider `CC(C)(C)c1cc(-c2nc(-c3ccc(C(=O)N4CCCC(N)C4)cc3Cl)c[nH]2)ccn1` (stereo not drawn) [Compound 85, 1-{4-[2-(2-tert-butylpyridin-4-yl)-1H-imidazol-4-yl]-3-chlorobenzoyl}piperidin-3-amine], for which, in series [1], the IC50 is above 3 µM. Besides, the IC50 at 24 h in series [2] was above 10 µM.
